Results from patent publication US10793568B2, “Hormone receptor modulators for treating metabolic conditions and disorders” (ARDELYX, INC., priority 2016, dated 2020).
Like-named read-outs stand apart in the source and are kept apart here.

Legend:
[1] = biological target: ligand binding domain of human FXR (Homo sapiens (Human), UniProt Q96RI1); assay: FXR ligand binding assay (LanthaScreen TR-FRET, SRC2-2 peptide recruitment); conditions: for Emax: read-out: % Efficacy; for pEC50: -log EC50, concentration required to produce 50% activation
[2] = biological target: human Farnesoid X receptor ligand-binding domain/Gal4 DNA binding domain chimera (Homo sapiens (Human), UniProt Q96RI1); assay: Cell-based assay of FXR activation (FXR-UAS-bla HEK 293T beta-lactamase reporter); conditions: cellular FXR beta-lactamase reporter assay; for Emax: HEK-293T, extent of activation relative to GW4064, read-out: % Efficacy; for EC50: FXR-UAS-bla HEK 293T cells, 16 h, pEC50 = -log EC50
Outline: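 Readout is cleavage of the CCF4 FRET substrate (409 nm excitation, blue 447 nm signal) by beta-lactamase, expressed under UAS control after a Gal4–human FXR LBD chimera is activated in HEK 293T cells. Compounds were added as 3-fold dilutions for 16 h at 37 °C in 2% charcoal-stripped FBS medium. Curves were fit to a 3-parameter logistic equation to give pEC50, with % activation relative to GW4064.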

[3] = extent of activation relative to GW4064

Sequence of human Farnesoid X receptor ligand-binding domain/Gal4 DNA binding domain chimera (Q96RI1 262-486, change not shown): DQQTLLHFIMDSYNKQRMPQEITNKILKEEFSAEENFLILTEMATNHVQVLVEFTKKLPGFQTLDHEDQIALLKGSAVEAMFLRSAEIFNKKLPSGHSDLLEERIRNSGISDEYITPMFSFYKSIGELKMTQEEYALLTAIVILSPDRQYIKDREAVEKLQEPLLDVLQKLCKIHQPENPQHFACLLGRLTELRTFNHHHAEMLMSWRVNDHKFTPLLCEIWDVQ
Sequence of human Farnesoid X receptor ligand-binding domain/Gal4 DNA binding domain chimera (P04386 1-147 partner): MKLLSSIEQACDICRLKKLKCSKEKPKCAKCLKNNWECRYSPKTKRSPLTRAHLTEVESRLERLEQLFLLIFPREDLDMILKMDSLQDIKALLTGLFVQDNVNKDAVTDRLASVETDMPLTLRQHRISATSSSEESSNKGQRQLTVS
Sequence of ligand binding domain of human FXR (Q96RI1 262-486): as the sequence (Q96RI1 262-486, change not shown) above

Compound: O=C(O)c1ccc(N2C[C@H]3C[C@@H]2C[C@@H]3OCc2c(-c3c(Cl)cccc3Cl)noc2C2CC2)c(F)c1 [Compound I-131, 4-[(1R,4R,5S)-5-{[5-cyclopropyl-3-(2,6-dichlorophenyl)-1,2-oxazol-4-yl]methoxy}-2-azabicyclo[2.2.1]heptan-2-yl]-3-fluorobenzoic Acid]
- Emax [1]: 108%
- Emax [2]: 94%
- EC50 [2]: 31.6 nM

Compound: O=C(O)c1ccc(N2C[C@H]3C[C@@H]2C[C@@H]3OCc2c(-c3c(Cl)cccc3Cl)noc2C2CC2)cc1 [Compound I-132]
- Emax [1, 3]: 98%
- EC50 [2]: < 316 nM

Compound: N#Cc1c(F)cc(N2C[C@@H]3C[C@H]2C[C@H]3OCc2c(-c3c(Cl)cccc3Cl)noc2C2CC2)cc1F [Compound I-133, 4-[(1S,4S,5R)-5-{[5-cyclopropyl-3-(2,6-dichlorophenyl)-1,2-oxazol-4-yl]methoxy}-2-azabicyclo[2.2.1]heptan-2-yl]-2,6-difluorobenzonitrile]
- pEC50 [1]: 7.4
- Emax [1, 3]: 79%
- Emax [2]: 106%
- EC50 [2]: < 39.8 nM

Compound: Fc1cc(-c2nn[nH]n2)ccc1N1C[C@@H]2C[C@H]1C[C@H]2OCc1c(-c2c(Cl)cccc2Cl)noc1C1CC1 [Compound I-134, (1S,4S,5R)-5-{[5-cyclopropyl-3-(2,6-dichlorophenyl)-1,2-oxazol-4-yl]methoxy}-2-[2-fluoro-4-(2H-1,2,3,4-tetrazol-5-yl)phenyl]-2-azabicyclo[2.2.1]heptane]
- pEC50 [1]: 8.2
- Emax [1, 3]: 156%
- Emax [2]: 104%
- EC50 [2]: 0.794 nM

Compound: O=C1NCc2cc(N3C[C@@H]4C[C@H]3C[C@H]4OCc3c(-c4c(Cl)cccc4Cl)noc3C3CC3)ccc21 [Compound I-135, 5-[(1S,4S,5R)-5-{[5-cyclopropyl-3-(2,6-dichlorophenyl)-1,2-oxazol-4-yl]methoxy}-2-azabicyclo[2.2.1]heptan-2-yl]-2,3-dihydro-1H-isoindol-1-one]
- pEC50 [1]: 9.4
- Emax [1, 3]: 152%
- Emax [2]: 102%
- EC50 [2]: 1 nM

Compound: O=C1NCCc2cc(N3C[C@@H]4C[C@H]3C[C@H]4OCc3c(-c4c(Cl)cccc4Cl)noc3C3CC3)ccc21 [Compound I-136, 6-[(1S,4S,5R)-5-{[5-cyclopropyl-3-(2,6-dichlorophenyl)-1,2-oxazol-4-yl]methoxy}-2-azabicyclo[2.2.1]heptan-2-yl]-1,2,3,4-tetrahydroisoquinolin-1-one]
- pEC50 [1]: 9
- Emax [1]: 154%
- Emax [2]: 114%
- EC50 [2]: 3.98 nM

Compound: O=c1[nH]c2cc(N3C[C@@H]4C[C@H]3C[C@H]4OCc3c(-c4c(Cl)cccc4Cl)noc3C3CC3)ccc2o1 [Compound I-140, 5-[(1S,4S,5R)-5-{[5-cyclopropyl-3-(2,6-dichlorophenyl)-1,2-oxazol-4-yl]methoxy}-2-azabicyclo[2.2.1]heptan-2-yl]-2,3-dihydro-1,3-benzoxazol-2-one]
- pEC50 [1]: 9.1
- Emax [1, 3]: 142%
- Emax [2]: 121%
- EC50 [2]: 20 nM

Compound: O=C1OCc2cc(N3C[C@@H]4C[C@H]3C[C@H]4OCc3c(-c4c(Cl)cccc4Cl)noc3C3CC3)ccc21 [Compound I-141, 5-[(1S,4S,5R)-5-{[5-cyclopropyl-3-(2,6-dichlorophenyl)-1,2-oxazol-4-yl]methoxy}-2-azabicyclo[2.2.1]heptan-2-yl]-1,3-dihydro-2-benzofuran-1-one]
- pEC50 [1]: 7
- Emax [1, 3]: 137%
- Emax [2]: 106%
- EC50 [2]: 63.1 nM

Compound: O=C(c1ccc(N2C[C@@H]3C[C@H]2C[C@H]3OCc2c(-c3c(Cl)cccc3Cl)noc2C2CC2)cc1)C(F)(F)F [Compound I-142, 1-{4-[(1S,4S,5R)-5-{[5-cyclopropyl-3-(2,6-dichlorophenyl)-1,2-oxazol-4-yl]methoxy}-2-azabicyclo[2.2.1]heptan-2-yl]phenyl}-2,2,2-trifluoroethan-1-one]
- pEC50 [1]: 7.8
- Emax [1, 3]: 78%
- Emax [2]: 104%
- EC50 [2]: 20 nM

Compound: CN(CC(=O)O)S(=O)(=O)c1ccc(N2C[C@@H]3C[C@H]2C[C@H]3OCc2c(-c3c(Cl)cccc3Cl)noc2C2CC2)cc1 [Compound I-143, 2-{N-methyl4-[(1S,4S,5R)-5-{[5-cyclopropyl-3-(2,6-dichlorophenyl)-1,2-oxazol-4-yl]methoxy}-2-azabicyclo[2.2.1]heptan-2-yl]benzenesulfonamido}acetic Acid]
- pEC50 [1]: 8
- Emax [1, 3]: 132%
- Emax [2]: 105%
- EC50 [2]: 1 nM

Compound: O=S(=O)(O)c1ccc(N2C[C@@H]3C[C@H]2C[C@H]3OCc2c(-c3c(Cl)cccc3Cl)noc2C2CC2)cc1 [Compound I-144, 4-[(1S,4S,5R)-5-{[5-cyclopropyl-3-(2,6-dichlorophenyl)-1,2-oxazol-4-yl]methoxy}-2-azabicyclo[2.2.1]heptan-2-yl]benzene-1-sulfonic Acid]
- pEC50 [1]: 8.2
- Emax [1, 3]: 128%
- EC50 [2]: < 31.6 nM

Compound: O=C(O)c1cnc(N2C[C@@H]3C[C@H]2C[C@H]3OCc2c(-c3c(Cl)cccc3Cl)noc2C2CC2)nc1 [Compound I-145, 2-[(1S,4S,5R)-5-{[5-cyclopropyl-3-(2,6-dichlorophenyl)-1,2-oxazol-4-yl]methoxy}-2-azabicyclo[2.2.1]heptan-2-yl]pyrimidine-5-carboxylic Acid]
- pEC50 [1]: 8
- Emax [1, 3]: 118%
- Emax [2]: 108%
- EC50 [2]: 63.1 nM

Compound: O=C(O)Cc1ccc(N2C[C@@H]3C[C@H]2C[C@H]3OCc2c(-c3c(Cl)cccc3Cl)noc2C2CC2)cc1 [Compound I-146, 2-{4-[(1S,4S,5R)-5-{[5-cyclopropyl-3-(2,6-dichlorophenyl)-1,2-oxazol-4-yl]methoxy}-2-azabicyclo[2.2.1]heptan-2-yl]phenyl}acetic Acid]
- pEC50 [1]: 7.9
- Emax [1, 3]: 134%
- Emax [2]: 101%
- EC50 [2]: 7.94 nM

Compound: O=C(O)CCc1ccc(N2C[C@@H]3C[C@H]2C[C@H]3OCc2c(-c3c(Cl)cccc3Cl)noc2C2CC2)cc1 [Compound I-147, 3-{4-[(1S,4S,5R)-5-{[5-cyclopropyl-3-(2,6-dichlorophenyl)-1,2-oxazol-4-yl]methoxy}-2-azabicyclo[2.2.1]heptan-2-yl]phenyl}propanoic Acid]
- pEC50 [1]: 8.1
- Emax [1]: 142%
- Emax [2]: 112%
- EC50 [2]: 0.631 nM

Compound: O=C(O)CCCc1ccc(N2C[C@@H]3C[C@H]2C[C@H]3OCc2c(-c3c(Cl)cccc3Cl)noc2C2CC2)cc1 [Compound I-148, 4-{4-[(1S,4S,5R)-5-{[5-cyclopropyl-3-(2,6-dichlorophenyl)-1,2-oxazol-4-yl]methoxy}-2-azabicyclo[2.2.1]heptan-2-yl]phenyl}butanoic Acid]
- pEC50 [1]: 7.8
- Emax [1, 3]: 136%
- Emax [2]: 117%
- EC50 [2]: 20 nM

Compound: O=C(O)C1(c2ccc(N3C[C@@H]4C[C@H]3C[C@H]4OCc3c(-c4c(Cl)cccc4Cl)noc3C3CC3)cc2)CC1 [Compound I-149, 1-{4-[(1S,4S,5R)-5-{[5-cyclopropyl-3-(2,6-dichlorophenyl)-1,2-oxazol-4-yl]methoxy}-2-azabicyclo[2.2.1]heptan-2-yl]phenyl}cyclopropane-1-carboxylic Acid]
- pEC50 [1]: 8.2
- Emax [1, 3]: 106%
- Emax [2]: 101%
- EC50 [2]: 63.1 nM

Compound: O=C(O)C1(c2ccc(N3C[C@@H]4C[C@H]3C[C@H]4OCc3c(-c4c(Cl)cccc4Cl)noc3C3CC3)cc2)CCC1 [Compound I-150, 1-{4-[(1S,4S,5R)-5-{[5-cyclopropyl-3-(2,6-dichlorophenyl)-1,2-oxazol-4-yl]methoxy}-2-azabicyclo[2.2.1]heptan-2-yl]phenyl}cyclobutane-1-carboxylic Acid]
- pEC50 [1]: 8.9
- Emax [1, 3]: 102%
- Emax [2]: 96%
- EC50 [2]: 25.1 nM

Compound: O=C(O)C1CC(c2ccc(N3C[C@@H]4C[C@H]3C[C@H]4OCc3c(-c4c(Cl)cccc4Cl)noc3C3CC3)cc2)C1 (stereo partly drawn) [Compound I-151, 3-{4-[(1S,4S,5R)-5-{[5-cyclopropyl-3-(2,6-dichlorophenyl)-1,2-oxazol-4-yl]methoxy}-2-azabicyclo[2.2.1]heptan-2-yl]phenyl}cyclobutane-1-carboxylic Acid]
- pEC50 [1]: 8.6
- Emax [1, 3]: 134%
- Emax [2]: 106%
- EC50 [2]: 25.1 nM

Compound: CC(CC(=O)O)c1ccc(N2C[C@@H]3C[C@H]2C[C@H]3OCc2c(-c3c(Cl)cccc3Cl)noc2C2CC2)c(F)c1 (stereo partly drawn) [Compound I-152, 3-{4-[(1S,4S,5R)-5-{[5-cyclopropyl-3-(2,6-dichlorophenyl)-1,2-oxazol-4-yl]methoxy}-2-azabicyclo[2.2.1]heptan-2-yl]-3-fluorophenyl}butanoic Acid]
- Emax [1, 3]: 132%
- Emax [2]: 105%
- EC50 [2]: 5.01 nM

Compound: O=C(O)Cc1ccc(N2C[C@@H]3C[C@H]2C[C@H]3OCc2c(-c3c(Cl)cccc3Cl)noc2C2CC2)c(F)c1 [Compound I-153, 2-{4-[(1S,4S,5R)-5-{[5-cyclopropyl-3-(2,6-dichlorophenyl)-1,2-oxazol-4-yl]methoxy}-2-azabicyclo[2.2.1]heptan-2-yl]-3-fluorophenyl}acetic Acid]
- pEC50 [1]: 9.2
- Emax [1, 3]: 130%
- Emax [2]: 100%
- EC50 [2]: 10 nM

Compound: O=C(O)CCc1ccc(N2C[C@@H]3C[C@H]2C[C@H]3OCc2c(-c3c(Cl)cccc3Cl)noc2C2CC2)c(F)c1 [Compound I-154, 3-{4-[(1S,4S,5R)-5-{[5-cyclopropyl-3-(2,6-dichlorophenyl)-1,2-oxazol-4-yl]methoxy}-2-azabicyclo[2.2.1]heptan-2-yl]-3-fluorophenyl}propanoic Acid]
- pEC50 [1]: 8.6
- Emax [1, 3]: 158%
- Emax [2]: 105%
- EC50 [2]: 0.501 nM
